Source: US20050192299A1, “Method of treating or preventing hepatitis B virus” (priority 1992, published 2005)
“And” between values parts separate entries of the source, which are not always exact repeats. Equal entries are not always repeated. Where two headings read alike, the source gives them in different places.

Columns and labels:
HBV [1] = experiment: Northern blot analysis of HBV-specific RNA transcripts in 2.2.15 cells; assay type: cell-based, hepatitis B virus; details: 2.0 μM, 12 days
Procedure: Total cellular RNA was isolated according to Chomczyndki et al. (Chomczynsk, P., and Sacchi, N., “Single Step Method for RNA Isolation by Acid Guanidinium Thiocyanate-Phenol-Chloroform Extraction,” Analytical Biochemistry, 162: 156-159, 1987). The RNA (20 μg per lane) was electrophoresed through 1% agarose gel containing 1.1×formaldehyde and transferred to Hybond-N membrane. The immobilized RNA was hybridized with ^32P-labeled HBV DNA probe and the membrane was autoradiographed as described above.
Northern blot analysis was performed to analyze HBV RNA transcripts. Three major transcripts of approximately 3.5, 2.5, and 2.1 Kb were detected in the total cellular RNA extract.

mitochondria DNA = experiment: cells; assay type: cell-based; details: for IC50: Homo sapiens, CCRF-CEM, CEM cells
Procedure: The CEM cells (5×10^4) cells were collected and freeze-thawed three times. The cell lysate was incubated with RNase (10 μg/ml) at 37° C. for 30 minutes. The sample was treated with proteinase K (100 μg/ml) at 55° C. for 1 hour. A 0.8 volume of supersaturated Nal (2.5 gNaI in 1 ml hot water) was added to the sample and heated at 90° C. for 10 minutes. The DNA was immobilized on nitrocellulose paper by using a slot blot apparatus (Schleicher & Schuell, Keene, NH). The mtDNA on the nitrocellulose paper was detected with a mtDNA specific probe as described previously (Chen, C. H., Cheng, Y. C., “relayed Cytotoxicity and Selective Loss of Mitochondria DNA in Cells Treated with the Anti-Human Immunodeficiency Virus Compound 2′,3′-Dideoxycytidine,” J. Biol. Chem. 264: 11934-11937, 1989).
(§1) Mitochondria DNA content was measured by slot blot hybridization analysis. […] Thus, D4C would be expected to have a mitochondria effect before the anti-HBV effect was achieved as the same phenomenon observed in treatment with ddC.

HBV [2] = tested on: HBV
HBV [3] = details: 12 days; for chromosomally integrated HBV DNA (amount and restriction enzyme pattern): 2.2.15 cells
[4] = tested on: CEM (T lymphoblastoid cells) cells; experiment: Cytotoxicity in CEM cells (cell number at day 4); assay type: cell-based; details: 4 days
Procedure: CEM (T lymphoblastoid cells) cells were inoculated in 5 ml RPMI 1640 supplemented with 5% fetal bovine serum at a concentration of 2×10^3 cells per ml. The cells were incubated with different concentrations of compounds for 4 days. At day 4, the cell number was determined by a coulter counter or a hemocytometer.
as §1

human cytidine deaminase = human cytidine deaminase (Homo sapiens, UniProt P32320); experiment: Deamination by deoxycytidine deaminase (HPLC analysis); assay type: biochemical; details: 37° C., 16 hours
Chain of human cytidine deaminase (P32320 whole entry): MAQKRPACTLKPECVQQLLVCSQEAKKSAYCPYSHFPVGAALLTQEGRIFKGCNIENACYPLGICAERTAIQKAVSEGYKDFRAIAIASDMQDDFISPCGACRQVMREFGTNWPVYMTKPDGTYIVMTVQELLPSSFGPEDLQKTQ
Procedure: After each time point, 100 μl of acetonitrile were added to the reaction mixture and agitated. The precipitated proteins were removed by centrifugation, and the supernatent was lyophilized to dryness. The samples were reconstituted with 200 μl of HPLC mobile phase buffer and analyzed on an Alltech RP-18 column. […] The mobile phase was 10% acetonitrile/water unless specified otherwise, and the flow rate was 0.8 ml/minutes.

CEM cells = experiment: CEM growth with dialyzed FBS (cell number on days 2, 4 and 6); assay type: cell-based; details: Homo sapiens, CCRF-CEM, RPMI 1640 + 5% dialyzed FBS, cell number versus days in culture, read-out: ID50 (CEM cell growth, toxicity)
Procedure: Six wells were seeded as controls. These wells were untreated. […] The cells were pipetted to break clumps, and then 1 ml was removed from each well and diluted into 9 ml saline. The saline+cells were pipetted well to break clumps and counted via a coutler counter. To determine ID50, cell number was plotted versus days in culture.

[5] = read-out: MTID30 (concentration which caused a 50% reduction in mitochondria DNA content)

| deamination by deoxycytidine deaminase (human cytidine deaminase) | Compound | IC50 (mitochondria DNA; [5]) [nM] | IC50 (HBV [2]) | selectivity ratio (HBV [2]) | other results |
| --- | --- | --- | --- | --- | --- |
| – | Nc1nc(=O)n([C@H]2CS[C@@H](CO)O2)cc1F (racemic) [5-fluoro-3′-thia-2′,3′-dideoxycytidine, (±)5-fluoro-3′-thia-2′,3′-dideoxycytidine] | > 200000 | 100 nM | > 2000 | HBV specific RNA transcripts (3.5, 2.5, 2.1 Kb) (HBV [1]): not affected at all; effect on mitochondria DNA synthesis (mitochondria DNA): no effect on mitochondria DNA synthesis was observed; chromosomally integrated HBV DNA (amount and restriction enzyme pattern) (HBV [3]): unaltered; chromosomally integrated HBV DNA (amount and restriction enzyme pattern) (HBV [3]; listed as 5-fluoro-3′-thia-2′,3-dideoxycytidine): not found to affect the integrated HBV DNAs; episomal HBV DNA in 2.2.15 cells (HBV [3]; different concentrations): decreased in a dose dependent manner |
| – | Nc1ccn(C2COC(CO)O2)c(=O)n1 (single isomer, unassigned; (-)) [(−) OddC, (−)-L-B-dioxolane-cytosine] | – | < 1 nM | – | – |
| – | Nc1ccn([C@H]2C[C@H](F)[C@@H](CO)O2)c(=O)n1 [3′-FddC, 3′-fluoro-2′,3′-dideoxycytidine] | 110 | 1600 nM | 28.1 | ED50 (concentration causing 50% reduction in cell number) [4]: 45000 nM; inhibition (HBV [2]; 2 µM): ~50% |
| no sign of deamination at all | Nc1ccn([C@@H]2CS[C@H](CO)O2)c(=O)n1 [(−)3′-thia-2′,3′-dideoxycytidine] | – | – | – | – |
| – | Nc1ccn([C@H]2C=C[C@@H](CO)O2)c(=O)n1 [D4C, 2′,3′-didehydro-2′,3′-dideoxycytidine] | 2000 | 2400 nM | 9.2 | ED50 (concentration causing 50% reduction in cell number) [4]: 22000 nM; IC50 (mitochondria DNA; read-out: MtID50): 2000 nM |
| – | Nc1ccn([C@H]2CC[C@@H](CO)O2)c(=O)n1 [ddC, 2′,3′ dideoxycytidine] | 22 | 3800 nM and 3600 nM | 2.6 | IC50 (mitochondria DNA; read-out: MtID50): 22 nM |
| no deamination occurred | Nc1ccn([C@@H]2CS[C@@H](CO)O2)c(=O)n1 [α-3′-Thia-2′,3′-dideoxycytidine] | – | – | – | – |

| Compound | deamination by deoxycytidine deaminase (human cytidine deaminase) | IC50 (mitochondria DNA; [5]) [nM] | IC50 (HBV [2]) | selectivity ratio (HBV [2]) | other results |
| --- | --- | --- | --- | --- | --- |
| Nc1ccn([C@H]2CS[C@@H](CO)O2)c(=O)n1 [(+)3′-thia-2′,3′-dideoxycytidine] | ~100% | – | – | – | inhibition (HBV [2]): ~50%; IC50 (CEM cells): 1260 nM |
